Results on 25 compounds are retold here after ChEMBL document CHEMBL6092183, “Rapid Affinity and Microsomal Stability Ranking of Crude Mixture Libraries of Histone Deacetylase Inhibitors” (ACS Med Chem Lett, 2024).

A short description of series [1]: in vitro. The following applies: rat, microsomes.
For series [2], the target named is Histone deacetylase 2 (Homo sapiens, UniProt Q92769). The series is described as follows: Inhibition of HDAC2 (unknown origin) incubated for 30 mins by ALIS assay.
Sequence of Histone deacetylase 2 (Q92769 whole entry): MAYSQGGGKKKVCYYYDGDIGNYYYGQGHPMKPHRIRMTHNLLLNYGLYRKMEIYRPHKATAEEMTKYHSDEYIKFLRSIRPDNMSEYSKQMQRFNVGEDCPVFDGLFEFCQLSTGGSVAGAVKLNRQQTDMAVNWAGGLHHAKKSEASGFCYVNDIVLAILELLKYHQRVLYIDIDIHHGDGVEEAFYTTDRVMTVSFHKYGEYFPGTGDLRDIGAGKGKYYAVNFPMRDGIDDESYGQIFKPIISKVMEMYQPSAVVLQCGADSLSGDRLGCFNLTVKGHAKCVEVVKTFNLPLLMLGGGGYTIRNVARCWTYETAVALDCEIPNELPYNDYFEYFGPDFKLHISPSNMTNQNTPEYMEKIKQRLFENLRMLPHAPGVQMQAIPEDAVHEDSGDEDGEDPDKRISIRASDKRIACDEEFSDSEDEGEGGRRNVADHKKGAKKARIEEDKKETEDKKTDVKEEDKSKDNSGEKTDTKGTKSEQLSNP
The conditions of series [3]: human, microsomes.
Description: Metabolic stability in human liver microsomes

pIC50: −log10 of the molar value. Several values for one entry are separate records, joined by “and”; a condition that tells them apart may be missing. Equal values may be shown once.

In series [1], `CCCC[C@H](NC(=O)[C@H](CN)c1c[nH]c2ccc(OC)cc12)c1nc(-c2ccc(-c3ccn(C)n3)cc2)c[nH]1` yielded a microsomal CLint at 0.75 h, 0.3 µM of 83.4 µL/min/mg.
Same read-out and setting: under `O=C(NCCCC[C@H](NC(=O)C1CC12CCNCC2)c1ncc(-c2ccc3ccccc3c2)[nH]1)c1c(O)cccc1F` (some centres not stated) stands 70.1 µL/min/mg.
In series [2], `CC(=O)N1CC2(CC2C(=O)N[C@@H](CCCCNC(=O)c2c(O)cccc2F)c2ncc(-c3ccc4ccccc4c3)[nH]2)C1` (some centres not stated) showed a pIC50 of 7.19. For the same compound, the microsomal CLint at 0.75 h, 0.3 µM in series [1] was found to be 310 µL/min/mg.
`O=C(NCCCC[C@H](NC(=O)C1C2CNCC21)c1ncc(-c2ccc3ccccc3c2)[nH]1)c1c(O)cccc1F` (some centres not stated) had a pIC50 in series [2] of 7.43. Further, the microsomal CLint at 0.75 h, 0.3 µM in series [1] amounted to 57.5 µL/min/mg.
Take `O=C(NCCCC[C@H](NC(=O)C1C2CCNC21)c1ncc(-c2ccc3ccccc3c2)[nH]1)c1c(O)cccc1F` (some centres not stated): the microsomal CLint at 0.75 h, 0.3 µM in series [1] came to 754 µL/min/mg.
Regarding `CCC(=O)CCCCC[C@H](NC(=O)CC1CN2CCC1CC2)c1ncc(-c2ccccc2)[nH]1` (some centres not stated), the pIC50 in series [2] is 6.68. For the same compound, the microsomal CLint at 0.75 h, 0.3 µM in series [1] is 91.8 µL/min/mg.
Compound `CCC(=O)CCCCC[C@H](NC(=O)C1C2COCC21)c1ncc(-c2ccccc2)[nH]1` (some centres not stated) had a pIC50 in series [2] of 6.53. The Stability entry in series [3] is “Stable”. This compound also returned a microsomal CLint at 0.75 h, 0.3 µM in series [1] of 75.7 µL/min/mg.
Take `CCCC[C@H](NC(=O)[C@H](CN)c1c[nH]c2ccc(OC)cc12)c1nc(-c2ccc(C3CC(C)(C)C3)cc2)c[nH]1`: the microsomal CLint at 0.75 h, 0.3 µM in series [1] was 110 µL/min/mg.
For `CCC(=O)CCCCC[C@H](NC(=O)C1CC2CCN1CC2)c1ncc(-c2ccccc2)[nH]1` (some centres not stated), in series [2], the negative logarithm of the IC50 (pIC50) is 7.01. The microsomal CLint at 0.75 h, 0.3 µM in series [1] is 144 µL/min/mg.
As for `CCCC[C@H](NC(=O)[C@H](CN)c1c[nH]c2ccc(OC)cc12)c1nc(-c2ccc(OC)cc2)c[nH]1`, the Stability entry in series [3] is recorded as “Stable”. Also, in series [1], the microsomal CLint at 0.75 h, 0.3 µM worked out at 164 µL/min/mg.
In the case of `O=C(NCCCC[C@H](NC(=O)C1CC12CCCCC2)c1ncc(-c2ccc3ccccc3c2)[nH]1)c1c(O)cccc1F` (some centres not stated), the pIC50 in series [2] is 6.36. In series [1], this compound registered a microsomal CLint at 0.75 h, 0.3 µM of 984 µL/min/mg.
As to `CCC(=O)CCCCC[C@H](NC(=O)C1CC12CN(C(C)=O)C2)c1ncc(-c2ccccc2)[nH]1` (some centres not stated), the pIC50 in series [2] was 6.37. This compound also displayed a microsomal CLint at 0.75 h, 0.3 µM in series [1] of 66.8 µL/min/mg.
In series [1], `CCC(=O)CCCCC[C@H](NC(=O)C1CC12CCCC2)c1ncc(-c2ccccc2)[nH]1` (some centres not stated) had a microsomal CLint at 0.75 h, 0.3 µM of 3510 µL/min/mg.
On to `O=C(NCCCC[C@H](NC(=O)C1CC12CCCC2)c1ncc(-c2ccc3ccccc3c2)[nH]1)c1c(O)cccc1F` (some centres not stated), for which the pIC50 in series [2] is 6.36 and 6.84. Besides, in series [1], the microsomal CLint at 0.75 h, 0.3 µM was 811 µL/min/mg.
As to `O=C(NCCCC[C@H](NC(=O)C1C2COCC21)c1ncc(-c2ccc3ccccc3c2)[nH]1)c1c(O)cccc1F` (some centres not stated), the pIC50 in series [2] was 7.34 and 7.05. The compound further came in with a microsomal CLint at 0.75 h, 0.3 µM in series [1] of 1150 µL/min/mg.
Regarding `CS(=O)(=O)N1CC2(CC2C(=O)N[C@@H](CCCCNC(=O)c2c(O)cccc2F)c2ncc(-c3ccc4ccccc4c3)[nH]2)C1` (some centres not stated), the pIC50 in series [2] was 7.32 and 7.92. The microsomal CLint at 0.75 h, 0.3 µM in series [1] stood at 693 µL/min/mg.
Compound `CCCC[C@H](NC(=O)[C@H](CN)c1c[nH]c2ccc(OC)cc12)c1nc(-c2ccc3c(C)noc3c2)c[nH]1` gave a microsomal CLint at 0.75 h, 0.3 µM in series [1] of 192 µL/min/mg.
As to `CCC(=O)CCCCC[C@H](NC(=O)C1C2CNCC21)c1ncc(-c2ccccc2)[nH]1` (some centres not stated), in series [2], the pIC50 was 6.95. In addition, the microsomal CLint at 0.75 h, 0.3 µM in series [1] was 11.8 µL/min/mg.
For `CCCC[C@H](NC(=O)[C@H](CN)c1c[nH]c2ccc(OC)cc12)c1nc(-c2ccn(C)c(=O)c2)c[nH]1`, in that order: 6.37 and 9.9 µL/min/mg.
The corresponding values for `O=C(NCCCC[C@H](NC(=O)C1CN2CCC1CC2)c1ncc(-c2ccc3ccccc3c2)[nH]1)c1c(O)cccc1F` (some centres not stated) are 7.72 and 1240 µL/min/mg.
The corresponding values for `CCC(=O)CCCCC[C@H](NC(=O)C1CN2CCC1CC2)c1ncc(-c2ccccc2)[nH]1` (some centres not stated) are 6.84 and 134 µL/min/mg.
Take `O=C(NCCCC[C@H](NC(=O)C1CCCCC12CC2)c1ncc(-c2ccc3ccccc3c2)[nH]1)c1c(O)cccc1F` (some centres not stated): in series [1], the microsomal CLint at 0.75 h, 0.3 µM was 805 µL/min/mg.
Turning to `CCCC[C@H](NC(=O)[C@H](CN)c1c[nH]c2ccc(OC)cc12)c1nc(-c2ccc(C#N)cc2)c[nH]1`, the Stability entry in series [3] is “Stable”. The microsomal CLint at 0.75 h, 0.3 µM in series [1] is 68.9 µL/min/mg.
Compound `CCCC[C@H](NC(=O)[C@H](CN)c1c[nH]c2ccc(OC)cc12)c1nc(-c2cc(C)cc(C)c2)c[nH]1` registered a microsomal CLint at 0.75 h, 0.3 µM in series [1] of 51 µL/min/mg.
On the same count and under the same terms, the figure for `CCCC[C@H](NC(=O)[C@H](CN)c1c[nH]c2ccc(OC)cc12)c1nc(-c2cccc(C)c2)c[nH]1` is 195 µL/min/mg.
